Reference: ChEMBL document CHEMBL4732135, “Structural and mechanistic insights into the inhibition of amyloid-β aggregation by Aβ fragment derived synthetic peptides” (Eur J Med Chem, 2021)
Calls of active or inactive are those of the source. The rule behind the calls is not given here. Square brackets hold non-standard residues; d marks the D form. Peptide text beside a SMILES is read from it. ξ: configuration not given here. Oic(3aξ,7aξ) = O=C(O)[C@@H]1CC2CCCCC2N1; 1Nal = N[C@@H](Cc1cccc2ccccc12)C(=O)O; NMeF = CN[C@@H](Cc1ccccc1)C(=O)O; NMeI = CC[C@H](C)[C@H](NC)C(=O)O; Abu = CC[C@H](N)C(=O)O

Assays:
[1] = target: Amyloid-beta precursor protein (Homo sapiens) (UniProt P05067); assay: Inhibition of amyloid beta (1 to 42) (unknown origin) assessed as reduction in peptide aggregation at 10 uM measured after 24 hrs by thioflavin-T fluorescence assay relative to control
Amyloid-beta precursor protein (Homo sapiens), sequence (P05067 whole entry): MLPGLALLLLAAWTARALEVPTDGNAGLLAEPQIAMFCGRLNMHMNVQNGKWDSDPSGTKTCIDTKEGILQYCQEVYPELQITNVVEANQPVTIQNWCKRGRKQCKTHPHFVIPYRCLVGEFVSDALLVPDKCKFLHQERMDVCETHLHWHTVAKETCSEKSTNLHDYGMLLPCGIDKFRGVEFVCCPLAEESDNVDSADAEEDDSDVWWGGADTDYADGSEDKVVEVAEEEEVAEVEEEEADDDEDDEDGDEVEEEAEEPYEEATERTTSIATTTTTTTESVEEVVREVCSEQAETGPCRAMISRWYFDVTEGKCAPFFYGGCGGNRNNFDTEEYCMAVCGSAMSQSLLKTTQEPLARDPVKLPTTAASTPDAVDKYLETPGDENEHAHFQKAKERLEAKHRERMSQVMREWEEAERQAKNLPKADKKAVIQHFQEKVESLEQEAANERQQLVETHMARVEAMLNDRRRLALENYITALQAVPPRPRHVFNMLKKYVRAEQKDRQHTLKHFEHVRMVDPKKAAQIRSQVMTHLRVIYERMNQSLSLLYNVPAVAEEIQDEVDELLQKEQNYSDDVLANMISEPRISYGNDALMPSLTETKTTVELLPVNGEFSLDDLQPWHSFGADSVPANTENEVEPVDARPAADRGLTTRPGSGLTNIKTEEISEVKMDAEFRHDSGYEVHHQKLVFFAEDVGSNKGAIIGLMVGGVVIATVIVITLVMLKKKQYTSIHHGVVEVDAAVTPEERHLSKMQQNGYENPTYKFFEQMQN

PC-12 [2] = assay: Neuroprotective activity against amyloid beta 42-induced toxicity in rat PC-12 cells assessed as cell viability at 10 uM measured after 6 hrs by MTT assay (reference value: 74.05%); type: functional; settings: read-out: Activity
[3] = target: Amyloid-beta precursor protein (Homo sapiens) (UniProt P05067); assay: Inhibition of amyloid beta (1 to 42) (unknown origin) assessed as reduction in peptide aggregation at 2 uM measured after 24 hrs by thioflavin-T fluorescence assay relative to control
[4] = target: Amyloid-beta precursor protein (Homo sapiens) (UniProt P05067); assay: Inhibition of amyloid beta (1 to 42) (unknown origin) assessed as reduction in peptide aggregation at 4 uM measured after 24 hrs by thioflavin-T fluorescence assay relative to control
PC-12 [5] = assay: Neuroprotective activity against amyloid beta 42-induced toxicity in rat PC-12 cells assessed as cell viability at 2 uM measured after 6 hrs by MTT assay (reference value: 74.05%); type: functional; settings: read-out: Activity
[6] = Effective permeability of compound in pH 8 PBS buffer by PAMPA-BBB assay; type: ADME
PC-12 [7] = assay: Neuroprotective activity against amyloid beta 42-induced toxicity in rat PC-12 cells assessed as cell viability at 4 uM measured after 6 hrs by MTT assay (reference value: 74.05%); type: functional; settings: read-out: Activity
[8] = target: Amyloid-beta precursor protein (Homo sapiens) (UniProt P05067); assay: Binding affinity to amyloid beta (1 to 42) (unknown origin) assessed as absence of fibrillar assembly at 10 uM measured after 24 hrs by HR-TEM analysis
[9] = target: Amyloid-beta precursor protein (Homo sapiens) (UniProt P05067); assay: Inhibition of amyloid beta (1 to 42) (unknown origin) aggregation assessed as protein with beta sheet conformation at 10 uM measured after 24 hrs by circular dichroism analysis (reference value: 66.4%); set-up: scale not given: the % may be the effect or the level left
[10] = target: Amyloid-beta precursor protein (Homo sapiens) (UniProt P05067); assay: Inhibition of amyloid beta (1 to 42) (unknown origin) aggregation assessed as protein with random coil conformation at 10 uM measured after 24 hrs by circular dichroism analysis (reference value: 5%); set-up: scale not given: the % may be the effect or the level left
[11] = target: Amyloid-beta precursor protein (Homo sapiens) (UniProt P05067); assay: Inhibition of amyloid beta (1 to 42) (unknown origin) aggregation assessed as protein with turn conformation at 10 uM measured after 24 hrs by circular dichroism analysis (reference value: 11.6%); set-up: scale not given: the % may be the effect or the level left
[12] = target: Amyloid-beta precursor protein (Homo sapiens) (UniProt P05067); assay: Binding affinity to amyloid beta (1 to 42) (unknown origin) assessed as absence of fibrillar assembly at 10 uM measured after 24 hrs by STEM analysis
PC-12 [13] = assay: Cytotoxicity against rat PC-12 cells assessed as reduction in cell viability at 20 uM measured after 6 hrs by MTT assay; type: cell-based; settings: pc-12, 6 h
Cortical neurone [14] = assay: Cytotoxicity against rat primary cortical neuron assessed as reduction in cell viability at 20 uM measured after 6 hrs by MTT assay; type: cell-based
PC-12 [15] = assay: Neuroprotective activity against amyloid beta 42-induced toxicity in rat PC-12 cells assessed as cell viability at 0.5 uM measured after 6 hrs by MTT assay (reference value: 73.8%); type: functional; settings: read-out: Activity
[16] = target: Amyloid-beta precursor protein (Homo sapiens) (UniProt P05067); assay: Binding affinity to amyloid beta (1 to 42) (unknown origin) at 10 uM measured after 24 hrs by ESI-HRMS analysis
Cortical neurone [17] = assay: Neuroprotective activity against amyloid beta 42-induced toxicity in rat primary cortical neurons at 0.1 uM; type: functional, cell-based
[18] = Stability of compound in serum (unknown origin) at 5 uM measured up to 12 hrs by HPLC analysis; type: ADME, cell-free; settings: read-out: Stabilty
[19] = target: Amyloid-beta precursor protein (Homo sapiens) (UniProt P05067); assay: Inhibition of amyloid beta (1 to 42) (unknown origin) aggregation assessed as relative fluorescence unit at 10 uM measured after 24 hrs by thioflavin-T fluorescence assay (reference value: 100%)
[20] = target: Amyloid-beta precursor protein (Homo sapiens) (UniProt P05067); assay: Inhibition of amyloid beta (1 to 42) (unknown origin) assessed as reduction in peptide aggregation at 0.5 uM measured after 24 hrs by thioflavin-T fluorescence assay relative to control
[21] = target: Amyloid-beta precursor protein (Homo sapiens) (UniProt P05067); assay: Inhibition of amyloid beta (1 to 42) (unknown origin) aggregation measured after 24 hrs by tyrosine fluorescence assay
[22] = target: Amyloid-beta precursor protein (Homo sapiens) (UniProt P05067); assay: Inhibition of amyloid beta (1 to 42) (unknown origin) assessed as reduction in peptide aggregation at 0.1 uM measured after 24 hrs by thioflavin-T fluorescence assay relative to control
[23] = target: Amyloid-beta precursor protein (Homo sapiens) (UniProt P05067); assay: Disaggregation of preformed amyloid beta (1 to 42) (unknown origin) aggregation at 2 uM by thioflavin-T fluorescence assay; settings: time 24-120 hrs, TDE = time-dependent effect
[24] = target: Amyloid-beta precursor protein (Homo sapiens) (UniProt P05067); assay: Disaggregation of preformed amyloid beta (1 to 42) (unknown origin) aggregation at 2 uM measured after 24 hrs by ANS dye based fluorescence assay
PC-12 [25] = assay: Neuroprotective activity against amyloid beta 42-induced toxicity in rat PC-12 cells assessed as cell viability at 0.1 uM measured after 6 hrs by MTT assay (reference value: 73.8%); type: functional; settings: read-out: Activity
[26] = target: Amyloid-beta precursor protein (Homo sapiens) (UniProt P05067); assay: Inhibition of amyloid beta (1 to 42) (unknown origin) aggregation at 2 uM measured after 24 hrs by ANS dye based fluorescence assay
[27] = target: Amyloid-beta precursor protein (Homo sapiens) (UniProt P05067); assay: Inhibition of amyloid beta (1 to 42) (unknown origin) aggregation assessed as relative fluorescence unit at 2 uM measured after 24 hrs by thioflavin-T fluorescence assay (reference value: 100%)
[28] = Stability of compound in serum (unknown origin) assessed as peptide cleavage at 5 uM measured after 24 hrs by MS analysis; type: ADME, cell-free
[29] = target: Amyloid-beta precursor protein (Homo sapiens) (UniProt P05067); assay: Binding affinity to amyloid beta (1 to 42) (unknown origin) assessed as amyloid beta (27 to 42)-adduct formation at 10 uM measured after 24 hrs by ESI-HRMS analysis
[30] = target: Amyloid-beta precursor protein (Homo sapiens) (UniProt P05067); assay: Inhibition of amyloid beta (1 to 42) (unknown origin) assessed as reduction in peptide aggregation at 1 uM measured after 24 hrs by thioflavin-T fluorescence assay relative to control
[31] = target: Amyloid-beta precursor protein (Homo sapiens) (UniProt P05067); assay: Inhibition of amyloid beta (1 to 42) (unknown origin) aggregation assessed as relative fluorescence unit at 4 uM measured after 24 hrs by thioflavin-T fluorescence assay (reference value: 100%)
PC-12 [32] = assay: Neuroprotective activity against amyloid beta 42-induced toxicity in rat PC-12 cells assessed as cell viability at 1 uM measured after 6 hrs by MTT assay (reference value: 73.8%); type: functional; settings: read-out: Activity
[33] = target: Amyloid-beta precursor protein (Homo sapiens) (UniProt P05067); assay: Inhibition of amyloid beta (1 to 42) (unknown origin) aggregation at 2 uM measured after 24 hrs in presence of giant unilamellar vesicles by ANS dye based fluorescence assay
[34] = target: Amyloid-beta precursor protein (Homo sapiens) (UniProt P05067); assay: Inhibition of amyloid beta (1 to 42) (unknown origin) assessed as reduction in peptide aggregation at 0.5 to 2 uM measured at 24 hrs interval for […] by thioflavin-T fluorescence assay; settings: dose 0.5-2 µM

SMILES	inhibition [1] [%]	inhibition [3] [%]	inhibition [4] [%]	Peff [6]	Activity [8]	Activity [9] [%]	Activity [10] [%]	Activity [12]	viability at 10 µM (PC-12 [2]) [%]	viability at 2 µM (PC-12 [5]) [%]	viability at 4 µM (PC-12 [7]) [%]	Activity (PC-12 [13])	Activity (Cortical neurone [14])	also measured
CC[C@H](C)[C@@H](C(=O)N[C@@H](C)C(=O)O)N(C)C(=O)[C@@H](NC(=O)[C@@H](N)C(C)C)C(C)C (H-VV[NMeI]A-OH)	100	80.6	83.4	Permeable					100	88.4	92.9			
CC[C@H](C)[C@H](NC(=O)[C@@H](NC(=O)[C@@H](N)C(C)C)C(C)C)C(=O)N[C@@H](C)C(=O)O (H-VVIA-OH)	66.2	33.9	60.6	Permeable					93.6	78.9	90.5			
CC[C@H](NC(=O)[C@@H](N)CC)C(=O)N[C@H](C(=O)N[C@@H](C)C(=O)O)[C@@H](C)CC (H-[Abu][Abu]IA-OH)	88.7	97.7	90.2						92.1	100	100	Non-Toxic	Non-Toxic	
CC[C@H](C)[C@H](NC(=O)[C@@H]1CC2CCCCC2N1C(=O)[C@@H](N)C(C)C)C(=O)N[C@@H](C)C(=O)O (stereo partly drawn) (H-V[Oic(3aξ,7aξ)]IA-OH)	100	100	100	Permeable	Active	14.2	60	Active	100	100	100	Non-Toxic	Non-Toxic	viability at 0.5 µM (PC-12 [15]): 80.5%; Activity [16]: Active; Activity (Cortical neurone [17]): Active; remaining at 12 h, 5 µM [18]: 90%; RFU [19]: 53.2%; inhibition [20]: 68%; inhibition [21]: Active; inhibition [22]: 61.2%; Activity [23]: Tde; Activity [24]: Active; viability at 0.1 µM (PC-12 [25]): 84.9%; inhibition [26]: Active; RFU [27]: 53%; Stabilty [28]: Unstable; Activity [29]: Active; inhibition [30]: 74.8%; RFU [31]: 53.3%; viability at 1 µM (PC-12 [32]): 92.3%; inhibition [33]: Active; inhibition [34]: Active

Second part, led by results:

inhibition [1] [%]	inhibition [3] [%]	inhibition [4] [%]	Peff [6]	Activity [8]	Activity [9] [%]	Activity [10] [%]	Activity [12]	SMILES	viability at 10 µM (PC-12 [2]) [%]	viability at 2 µM (PC-12 [5]) [%]	viability at 4 µM (PC-12 [7]) [%]	Activity (PC-12 [13])	Activity (Cortical neurone [14])	also measured
29.1	34	23.8		inactive	18.7	31.6	inactive	CC[C@H](C)[C@H](NC(=O)[C@@H](NC(=O)[C@@H](N)Cc1cccc2ccccc12)C(C)C)C(=O)N[C@@H](C)C(=O)O (H-[1Nal]VIA-OH)	70.6	77	73.2			Activity [11]: 45.3%
100	84.8	94.3	Permeable					CC[C@H](C)[C@H](NC(=O)[C@@H](NC(=O)[C@H](Cc1ccccc1)NC)C(C)C)C(=O)N[C@@H](C)C(=O)O (H-[NMeF]VIA-OH)	100	86.1	81			
